Results taken from ChEMBL document CHEMBL3112450, “Synthesis and in vitro antitumor evaluation of primary amine substituted quinazoline linked benzimidazole” (Bioorg Med Chem Lett, 2014).

What was measured:
Format in all cases: functional
[1] = Cytotoxicity against human Hs578T cells assessed as cell growth at 10^-7 M after 48 hrs by SRB assay; conditions: Hs-578T, read-out: Activity
[2] = system: HCT-15; experiment: Cytotoxicity against human HCT15 cells assessed as cell growth at 10^-7 M after 48 hrs by SRB assay; conditions: HCT-15, 48 h, read-out: Activity
[3] = system: SF-295; experiment: Cytotoxicity against human SF295 cells after 48 hrs by SRB assay; conditions: SF-295, 48 h
[4] = system: NCI-H23; experiment: Cytotoxicity against human NCI-H23 cells assessed as cell growth at 10^-4 M after 48 hrs by SRB assay; conditions: NCI-H23, 48 h, read-out: Activity
[5] = system: NCI-H460; experiment: Cytotoxicity against human NCI-H460 cells after 48 hrs by SRB assay; conditions: NCI-H460, 48 h
[6] = system: MDA-MB-468; experiment: Cytotoxicity against human MDA-MB-468 cells after 48 hrs by SRB assay; conditions: MDA-MB-468, 48 h
[7] = system: HCT-116; experiment: Cytotoxicity against human HCT116 cells after 48 hrs by SRB assay; conditions: HCT-116, 48 h
[8] = system: PC-3; experiment: Cytotoxicity against human PC3 cells assessed as cell growth at 10^-4 M after 48 hrs by SRB assay; conditions: PC-3, 48 h, read-out: Activity
[9] = system: HCT-116; experiment: Cytotoxicity against human HCT116 cells assessed as cell growth at 10^-6 M after 48 hrs by SRB assay; conditions: HCT-116, 48 h, read-out: Activity
[10] = system: SN12C; experiment: Cytotoxicity against human SN12C cells after 48 hrs by SRB assay
[11] = Cytotoxicity against human NCI-ADR-RES cells assessed as cell growth at 10^-6 M after 48 hrs by SRB assay; conditions: read-out: Activity
[12] = system: SF-268; experiment: Cytotoxicity against human SF268 cells assessed as cell growth at 10^-8 M after 48 hrs by SRB assay; conditions: SF-268, 48 h, read-out: Activity
[13] = Cytotoxicity against human OVCAR5 cells assessed as cell growth at 10^-6 M after 48 hrs by SRB assay; conditions: OVCAR-5, 48 h, read-out: Activity
[14] = system: OVCAR-3; experiment: Cytotoxicity against human OVCAR3 cells assessed as cell growth at 10^-7 M after 48 hrs by SRB assay; conditions: OVCAR-3, 48 h, read-out: Activity
[15] = system: HOP-92; experiment: Cytotoxicity against human HOP92 cells assessed as cell growth at 10^-6 M after 48 hrs by SRB assay; conditions: HOP-92, 48 h, read-out: Activity
[16] = system: LOX IMVI; experiment: Cytotoxicity against human LOXIMVI cells assessed as cell growth at 10^-7 M after 48 hrs by SRB assay; conditions: read-out: Activity
[17] = system: KM12; experiment: Cytotoxicity against human KM12 cells assessed as cell growth at 10^-6 M after 48 hrs by SRB assay; conditions: KM12, 48 h, read-out: Activity
[18] = system: IGROV-1; experiment: Cytotoxicity against human IGROV1 cells assessed as cell growth at 10^-8 M after 48 hrs by SRB assay; conditions: IGROV-1, 48 h, read-out: Activity
[19] = system: SNB-19; experiment: Cytotoxicity against human SNB19 cells assessed as cell growth at 10^-8 M after 48 hrs by SRB assay; conditions: SNB-19, 48 h, read-out: Activity
[20] = system: MCF7; experiment: Cytotoxicity against human MCF7 cells assessed as cell growth at 10^-6 M after 48 hrs by SRB assay; conditions: MCF7, 48 h, read-out: Activity
[21] = system: ACHN; experiment: Cytotoxicity against human ACHN cells assessed as cell growth at 10^-8 M after 48 hrs by SRB assay; conditions: read-out: Activity
[22] = system: HCT-15; experiment: Cytotoxicity against human HCT15 cells assessed as cell growth at 10^-4 M after 48 hrs by SRB assay; conditions: HCT-15, 48 h, read-out: Activity
[23] = system: NCI-H226; experiment: Cytotoxicity against human NCI-H226 cells after 48 hrs by SRB assay; conditions: NCI-H226, 48 h
[24] = system: SW-620; experiment: Cytotoxicity against human SW620 cells assessed as cell growth at 10^-6 M after 48 hrs by SRB assay; conditions: SW-620, 48 h, read-out: Activity
[25] = system: IGROV-1; experiment: Cytotoxicity against human IGROV1 cells after 48 hrs by SRB assay; conditions: IGROV-1, 48 h
[26] = system: HT-29; experiment: Cytotoxicity against human HT-29 cells after 48 hrs by SRB assay; conditions: HT-29, 48 h
[27] = system: PC-3; experiment: Cytotoxicity against human PC3 cells after 48 hrs by SRB assay; conditions: PC-3, 48 h
[28] = system: TK-10; experiment: Cytotoxicity against human TK10 cells assessed as cell growth at 10^-4 M after 48 hrs by SRB assay; conditions: TK-10, 48 h, read-out: Activity
[29] = system: IGROV-1; experiment: Cytotoxicity against human IGROV1 cells assessed as cell growth at 10^-4 M after 48 hrs by SRB assay; conditions: IGROV-1, 48 h, read-out: Activity
[30] = system: KM12; experiment: Cytotoxicity against human KM12 cells assessed as cell growth at 10^-7 M after 48 hrs by SRB assay; conditions: KM12, 48 h, read-out: Activity
[31] = system: HCC 2998; experiment: Cytotoxicity against human HCC2998 cells after 48 hrs by SRB assay; conditions: HCC 2998, 48 h
[32] = system: SK-OV-3; experiment: Cytotoxicity against human SKOV3 cells assessed as cell growth at 10^-7 M after 48 hrs by SRB assay; conditions: SK-OV-3, 48 h, read-out: Activity
[33] = system: HCC 2998; experiment: Cytotoxicity against human HCC2998 cells assessed as cell growth at 10^-6 M after 48 hrs by SRB assay; conditions: HCC 2998, 48 h, read-out: Activity
[34] = system: UACC-62; experiment: Cytotoxicity against human UACC62 cells assessed as cell growth at 10^-8 M after 48 hrs by SRB assay; conditions: UACC-62, 48 h, read-out: Activity
[35] = system: SF-539; experiment: Cytotoxicity against human SF539 cells assessed as cell growth at 10^-8 M after 48 hrs by SRB assay; conditions: SF-539, 48 h, read-out: Activity
[36] = system: CAKI-1; experiment: Cytotoxicity against human Caki1 cells assessed as cell growth at 10^-7 M after 48 hrs by SRB assay; conditions: CAKI-1, 48 h, read-out: Activity
[37] = system: TK-10; experiment: Cytotoxicity against human TK10 cells after 48 hrs by SRB assay; conditions: TK-10, 48 h
[38] = system: 786-0; experiment: Cytotoxicity against human 786-0 cells after 48 hrs by SRB assay; conditions: 786-0, 48 h
[39] = system: A498; experiment: Cytotoxicity against human A498 cells assessed as growth inhibition at 10 uM after 48 hrs by SRB assay; conditions: A498, 48 h, read-out: GI

C=CCn1c(C)nc2ccc(Nc3nc(Nc4ccc5nc(C)n(CC=C)c5c4)c4ccccc4n3)cc21
growth at 0.1 µM [1]: 96% | growth at 0.1 µM [2]: 91% | GI50 [3]: 1840 nM | TGI [3]: 3530 nM | growth at 100 µM [4]: -42% | GI50 [5]: 1890 nM | TGI [5]: 3700 nM | GI50 [6]: 1220 nM | TGI [6]: 2480 nM | GI50 [7]: 1370 nM | growth at 100 µM [8]: -46% | growth at 1 µM [9]: 74% | GI50 [10]: 1620 nM | LC50 [10]: 5450 nM | TGI [10]: 2980 nM | growth at 1 µM [11]: 90% | growth at 0.01 µM [12]: 90% | growth at 1 µM [13]: 94% | growth at 0.1 µM [14]: 96% | growth at 1 µM [15]: 70% | growth at 0.1 µM [16]: 91% | growth at 1 µM [17]: 89% | growth at 0.01 µM [18]: 100% | growth at 0.01 µM [19]: 92% | growth at 1 µM [20]: 85% | growth at 0.01 µM [21]: 103% | growth at 100 µM [22]: -15% | GI50 [23]: 1750 nM | TGI [23]: 3310 nM | growth at 1 µM [24]: 80% | GI50 [25]: 1830 nM | TGI [25]: 3400 nM | GI50 [26]: 1850 nM | TGI [26]: 3390 nM | GI50 [27]: 1370 nM | TGI [27]: 2900 nM | growth at 100 µM [28]: -49% | growth at 100 µM [29]: -25% | growth at 0.1 µM [30]: 92% | GI50 [31]: 1720 nM | LC50 (50% lethal concentration) [31]: 5560 nM | TGI [31]: 3090 nM | growth at 0.1 µM [32]: 95% | growth at 1 µM [33]: 96% | growth at 0.01 µM [34]: 96% | growth at 0.01 µM [35]: 96% | growth at 0.1 µM [36]: 90% | GI50 [37]: 2040 nM | TGI [37]: 3500 nM | GI50 [38]: 1730 nM | TGI [38]: 3360 nM

C=CCn1c(C)nc2cc(Nc3nc(Nc4ccc5nc(C)n(CC=C)c5c4)c4ccccc4n3)ccc21
growth at 0.1 µM [1]: 96% | growth at 0.1 µM [2]: 96% | GI50 [3]: 1440 nM | LC50 [3]: 5240 nM | TGI [3]: 2750 nM | growth at 100 µM [4]: -28% | GI50 [5]: 220 nM | GI50 [6]: 216 nM | LC50 (concentration killing 50% of cells) [6]: > 100000 nM | TGI [6]: 578 nM | GI50 [7]: 214 nM | growth at 100 µM [8]: -41% | growth at 1 µM [9]: -54% | GI50 [10]: 1280 nM | TGI [10]: 2900 nM | growth at 1 µM [11]: 85% | growth at 0.01 µM [12]: 95% | growth at 1 µM [13]: 20% | growth at 0.1 µM [14]: 101% | growth at 1 µM [15]: 45% | growth at 0.1 µM [16]: 96% | growth at 1 µM [17]: -40% | growth at 0.01 µM [18]: 103% | growth at 0.01 µM [19]: 91% | growth at 1 µM [20]: -63% | growth at 0.01 µM [21]: 105% | growth at 100 µM [22]: 2% | GI50 [23]: 2030 nM | LC50 [23]: > 100000 nM | TGI [23]: 5040 nM | growth at 1 µM [24]: -69% | GI50 [25]: 1540 nM | TGI [25]: 3010 nM | GI50 [26]: 190 nM | LC50 (concentration killing 50% of cells) [26]: 100000 nM | TGI [26]: 349 nM | GI50 [27]: 305 nM | TGI [27]: 1020 nM | growth at 100 µM [28]: -63% | growth at 100 µM [29]: -43% | growth at 0.1 µM [30]: 98% | GI50 [31]: 1200 nM | LC50 (50% lethal concentration) [31]: 5030 nM | TGI [31]: 2450 nM | growth at 0.1 µM [32]: 106% | growth at 1 µM [33]: 63% | growth at 0.01 µM [34]: 97% | growth at 0.01 µM [35]: 96% | growth at 0.1 µM [36]: 97% | GI50 [37]: 522 nM | LC50 [37]: 4130 nM | TGI [37]: 1710 nM | GI50 [38]: 188 nM | TGI [38]: 362 nM

C=CCn1c(C)nc2cc(Nc3nc(NCCO)nc4ccccc34)ccc21
inhibition of growth at 10 µM [39]: 40%

C=CCn1c(C)nc2ccc(Nc3nc(Sc4ccc(N)cc4)nc4ccccc34)cc21
inhibition of growth at 10 µM [39]: 50%
